According to patent US6376671B1, “2-sulfamoylbenzoic acid derivatives” (Kaken Pharmaceutical Co., Ltd., priority 1997, dated 2002):

How the values were obtained:
[1] = target: T1, LTD4 receptor (Cavia porcellus, UniProt Q2NNR5); test: LTD4 antagonistic effects: LTD4-induced constriction of isolated guinea pig ileum preparations; assay type: cell-based; conditions: LTD4 0.05-3.5 ng/ml cumulative, 5 min pre-treatment, Van Rossum's method
T1 construct: the ilea were excised and made into ileum preparations; from tissue; host or cells: guinea pig ileum
T1 sequence (Q2NNR5 1-340): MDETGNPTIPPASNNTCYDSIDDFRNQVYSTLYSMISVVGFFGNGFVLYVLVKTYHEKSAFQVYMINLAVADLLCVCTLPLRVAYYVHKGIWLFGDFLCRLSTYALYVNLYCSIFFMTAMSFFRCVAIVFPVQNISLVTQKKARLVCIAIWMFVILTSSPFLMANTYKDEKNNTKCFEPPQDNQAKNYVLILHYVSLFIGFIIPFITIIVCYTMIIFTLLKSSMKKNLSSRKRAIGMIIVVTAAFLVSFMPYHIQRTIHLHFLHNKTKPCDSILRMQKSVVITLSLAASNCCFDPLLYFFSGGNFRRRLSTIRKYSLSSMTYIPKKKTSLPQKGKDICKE
Protocol: Guinea pigs were bled to death, and the ilea were excised and made into ileum preparations. The ileum preparations were suspended with a 1 g load in Magnus tubes filled with 2 ml Tyrode solution maintained at 37° C. under aeration with a 95% O2-5% CO2 gas mixture, and LTD4-induced constrictions were isotonically recorded.
After equilibration of the tonuses of the ilea, constrictive responses to cumulative addition of 0.05-3.5 ng/ml LTD4 were observed. After the constrictive responses reached equilibrium, LTD4 was added again cumulatively 5 minutes after pre-treatment with a test substance to induce constriction. The pA2 values were calculated in accordance with Van Rossum's method.

[2] = target: T2, TXA2 receptor (Cavia porcellus, UniProt A0A286Y4I8); test: TXA2 antagonistic effects: U-46619-induced constriction of isolated guinea pig tracheal muscle strips; assay type: cell-based; conditions: U-46619 cumulative, 5 min pre-treatment, Van Rossum's method
T2 construct: the tracheae were excised and made into tracheal muscle strips; from tissue; host or cells: guinea pig tracheal muscle strips
T2 sequence (A0A286Y4I8 1-347): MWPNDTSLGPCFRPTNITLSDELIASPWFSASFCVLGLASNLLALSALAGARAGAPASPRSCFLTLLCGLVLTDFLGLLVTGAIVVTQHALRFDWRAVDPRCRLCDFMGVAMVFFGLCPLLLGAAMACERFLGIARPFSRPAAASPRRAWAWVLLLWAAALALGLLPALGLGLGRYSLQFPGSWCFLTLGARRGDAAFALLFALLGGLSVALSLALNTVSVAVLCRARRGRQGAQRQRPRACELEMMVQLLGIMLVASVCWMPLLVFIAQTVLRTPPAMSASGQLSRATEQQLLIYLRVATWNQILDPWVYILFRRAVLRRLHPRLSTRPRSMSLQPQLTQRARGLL
Protocol: Guinea pigs were bled to death, and the tracheae were excised and made into tracheal muscle strips in accordance with Takagi et al. The strips were suspended with a 1 g load in Magnus tubes filled with 2 ml Tyrode solution maintained at 37° C. under aeration with a 95% O2-5% CO2 gas mixture, and U-46619-induced constrictions were isotonically recorded.
After equilibration of the tonuses of the strips, constrictive responses to cumulative addition of 10^−10−[…] U-46619 were observed. After the constrictive responses reached equilibrium, U-46619 was added again cumlatively 5 minutes after pre-treatment with a test substance to induce constriction. The pA2 values were calculated in accordance with Van Rossum's method.

[3] = system: passively sensitized guinea pigs; test: Antiasthmatic effects: immediate asthmatic response of passively sensitized guinea pigs (airway resistance); assay type: in vivo, guinea pig; conditions: 3 mg/kg i.v. 5 min before antigen inhalation (1% ovalbumin); airway resistance 5 min after inhalation
Protocol: The antiasthmatic effects were evaluated by the immediate asthmatic responses of passively sensitized guinea pigs. The previous day, the guinea pigs were sensitized by intravenous injections of a 10-fold diluted anti-DNP-ovalbumin guinea pig serum (guinea pig PCA titer; X1024) on the ears. The day of the test, after pre-treatment with pyrilamine (10 mg/kg i.p.), normal airway resitances were measured with a double flow plethysmograph in accordance with Pennock et al. The test substances (3 mg/kg) in DMSO were dissolved in 50% normal guinea pig serum-saline and intravenously injected from the ear vein 5 minutes before inhalation of the antigen. Immediate asthmatic responses were induced by 3 minutes of inhalational exposure to 1% ovalbumin in saline as the antigen from an ultrasonic neblizer, and the airway resistances were measured 5 minutes (4 to 6 minutes) after the inhalation. The results are expressed by the inhibition rates given by the following expression:
Inhibition rate (%)=(1−(A−B)/(C−D))×100
A: the airway resistance with a test substance after inhalation of the antigen,
B: the airway resistance with a test substance before inhalation of the antigen,
C: the airway resistance with a control after inhalation of the antigen,
D: the airway resistance with a control before inhalation of the antigen.

[4] = system: ICR mice; test: Acute toxicity test in ICR mice; assay type: in vivo, mouse

Structure (SMILES)	Kb ([1]; read-out: LTD4 inhibitory effect (pA2) (converted)) [nM]	Kb ([2]; read-out: TXA2 inhibitory effect (pA2) (converted)) [nM]	LTD4 inhibitory effect (pA2) [1]	TXA2 inhibitory effect (pA2) [2]	Antiasthmatic effect Inhibition rate (%) [3] [%]	Acute toxicity (mortality), intravenous ([4]; intravenously 100 mg/kg)	Acute toxicity (mortality), oral ([4]; orally 1000 mg/kg)
CC(C)c1csc(COc2cccc(CN(CCCCNS(=O)(=O)c3ccc(Cl)cc3)S(=O)(=O)c3ccccc3-c3nnn[nH]3)c2)n1 [compound 91, 5-{2-{N-[4-(4-chlorobenzenesulfonylamino)butyl]-N-{3-[(4-isopropyl-2-thiazolyl)methoxy]benzyl}}sulfamoylphenyl}-1H-tetrazole]	0.891	18.6					
CC(C)c1csc(COc2cccc(CN(CCCCNS(=O)(=O)c3ccc(Cl)cc3)S(=O)(=O)c3ccccc3C(=O)O)c2)n1 [compound 1, 2-{N-[4-(4-chlorobenzenesulfonylamino)butyl]-N-{3-[(4-isopropyl-2-thiazolyl)methoxy]benzyl}}sulfamoylbenzoic acid]			9.73	8.30	53.5	none of the mice died	none of the mice died
